Reference: ChEMBL document CHEMBL1201862, “PubChem BioAssay data set” (2004)
Values joined by “and” are separate entries in the source; they are usually repeats but may differ in a detail not shown here. Equal entries are not always repeated.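 All cell lines were grown in 96-well plates and treated with compound for 48 hours. GI50 is the concentration that inhibits growth by half.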 Active and inactive are the calls of the source. Cut-off read from the data, not from the text of the source: active = GI50 up to about 1.1 µM and inactive = higher.

What was measured:
Experiment in all cases: DTP human tumour cell line panel, 48 h
SNB-19 = test system: SNB-19
K562 = test system: K562
PC-3 = test system: PC-3
SF-295 = test system: SF-295
Malme-3M = test system: Malme-3M
DU-145 = test system: DU-145
MDA-MB-435 = test system: MDA-MB-435
NCI-H23 = test system: NCI-H23
OVCAR-3 = test system: OVCAR-3
OVCAR-5 = test system: OVCAR-5
LOX IMVI = test system: LOX IMVI
UACC-62 = test system: UACC-62
ACHN = test system: ACHN
HCT-15 = test system: HCT-15
NCI-H522 = test system: NCI-H522
OVCAR-4 = test system: OVCAR-4
UO-31 = test system: UO-31
KM12 = test system: KM12
A549 = test system: A549
SK-MEL-5 = test system: SK-MEL-5
BT-549 = test system: BT-549
EKVX = test system: EKVX
UACC-257 = test system: UACC-257
HCT-116 = test system: HCT-116
RXF 393 = test system: RXF 393
MCF7 = test system: MCF7
SW-620 = test system: SW-620
A498 = test system: A498
NCI/ADR-RES = test system: NCI/ADR-RES
SN12C = test system: SN12C
Hs-578T = test system: Hs-578T
HL-60 = test system: HL-60
CAKI-1 = test system: CAKI-1
HT-29 = test system: HT-29
MDA-N = test system: MDA-N
786-0 = test system: 786-0
HCC 2998 = test system: HCC 2998
U-251 = test system: U-251
M14 = test system: M14
OVCAR-8 = test system: OVCAR-8
SF-268 = test system: SF-268
SK-MEL-28 = test system: SK-MEL-28
SR = test system: SR
RPMI-8226 = test system: RPMI-8226
MOLT-4 = test system: MOLT-4
COLO 205 = test system: COLO 205
SK-MEL-2 = test system: SK-MEL-2
NCI-H460 = test system: NCI-H460
SF-539 = test system: SF-539
TK-10 = test system: TK-10
IGROV-1 = test system: IGROV-1
NCI-H226 = test system: NCI-H226
HOP-62 = test system: HOP-62
CCRF-CEM = test system: CCRF-CEM
HOP-92 = test system: HOP-92
MDA-MB-231 = test system: MDA-MB-231
SNB-75 = test system: SNB-75
SK-OV-3 = test system: SK-OV-3
T47D = test system: T47D

## COc1ccc(-c2c(C(C)=O)c(-c3ccccc3)n(C3OC(COC(C)=O)C(OC(C)=O)C(OC(C)=O)C3OC(C)=O)c(=S)c2C#N)cc1O (configuration not stated)
SNB-19
  GI50: 71.4 µM (inactive)
K562
  GI50: 47.9 µM (inactive) and 49.4 µM (inactive)
PC-3
  GI50: 26.4 µM (inactive) and 41.4 µM (inactive)
SF-295
  GI50: 64.4 µM (inactive) and 36.4 µM (inactive)
Malme-3M
  GI50: 18.5 µM (inactive) and 16.4 µM (inactive)
DU-145
  GI50: 37.8 µM (inactive) and 26.9 µM (inactive)
MDA-MB-435
  GI50: 39.1 µM (inactive) and 32 µM (inactive)
NCI-H23
  GI50: 35.4 µM (inactive) and 26 µM (inactive)
OVCAR-3
  GI50: 29.4 µM (inactive) and 16.8 µM (inactive)
OVCAR-5
  GI50: > 100 µM (inactive) and 66.7 µM (inactive)
LOX IMVI
  GI50: 34.6 µM (inactive) and 23.2 µM (inactive)
UACC-62
  GI50: 38.7 µM (inactive) and 19.9 µM (inactive)
ACHN
  GI50: 40.8 µM (inactive) and 32.9 µM (inactive)
HCT-15
  GI50: 42.3 µM and 28 µM
NCI-H522
  GI50: 17.6 µM (inactive) and 10.1 µM (inactive)
OVCAR-4
  GI50: 31.8 µM (inactive) and 24.7 µM (inactive)
UO-31
  GI50: 56.9 µM (inactive) and 36.4 µM (inactive)
KM12
  GI50: 33.7 µM (inactive) and 19.1 µM (inactive)
A549
  GI50: 68.5 µM (inactive) and 44.9 µM (inactive)
SK-MEL-5
  GI50: 33.4 µM (inactive) and 30.1 µM (inactive)
BT-549
  GI50: 33.7 µM (inactive)
EKVX
  GI50: 25.9 µM (inactive) and 34.6 µM (inactive)
UACC-257
  GI50: 55.8 µM (inactive) and 34.9 µM (inactive)
HCT-116
  GI50: 21.8 µM (inactive) and 36.2 µM (inactive)
RXF 393
  GI50: 40.6 µM (inactive) and 42.1 µM (inactive)
MCF7
  GI50: 28.6 µM (inactive) and 36.1 µM (inactive)
SW-620
  GI50: 93.8 µM (inactive) and 91.6 µM (inactive)
A498
  GI50: > 100 µM (inactive)
NCI/ADR-RES
  GI50: 38.3 µM (inactive)
SN12C
  GI50: > 100 µM (inactive) and 52.1 µM (inactive)
Hs-578T
  GI50: 47.6 µM (inactive) and 70.5 µM (inactive)
HL-60
  GI50: 7.1 µM (inactive)
CAKI-1
  GI50: 62.8 µM (inactive) and 49.7 µM (inactive)
HT-29
  GI50: 36.9 µM (inactive)
MDA-N
  GI50: 27.5 µM (inactive) and 33.5 µM (inactive)
786-0
  GI50: 36.5 µM (inactive) and 36.9 µM (inactive)
HCC 2998
  GI50: 24.1 µM (inactive) and 18.2 µM (inactive)
U-251
  GI50: 91.8 µM (inactive) and 69.5 µM (inactive)

## Cc1nc2ccc(S(=O)(=O)Nc3ccccc3)cc2c(=O)n1NC(=O)CNc1ccccc1
SNB-19
  GI50: > 100 µM (inactive)
K562
  GI50: > 100 µM (inactive)
PC-3
  GI50: > 100 µM (inactive)
M14
  GI50: > 100 µM (inactive)
OVCAR-8
  GI50: > 100 µM (inactive)
SF-268
  GI50: > 100 µM (inactive)
SF-295
  GI50: > 100 µM (inactive)
Malme-3M
  GI50: > 100 µM (inactive)
SK-MEL-28
  GI50: > 100 µM (inactive)
DU-145
  GI50: > 100 µM (inactive)
MDA-MB-435
  GI50: > 100 µM (inactive)
SR
  GI50: > 100 µM (inactive)
NCI-H23
  GI50: > 100 µM (inactive)
OVCAR-3
  GI50: > 100 µM (inactive)
OVCAR-5
  GI50: > 100 µM (inactive)
LOX IMVI
  GI50: > 100 µM (inactive)
UACC-62
  GI50: > 100 µM (inactive)
RPMI-8226
  GI50: > 100 µM (inactive)
ACHN
  GI50: > 100 µM (inactive)
MOLT-4
  GI50: > 100 µM (inactive)
HCT-15
  GI50: > 100 µM
NCI-H522
  GI50: > 100 µM (inactive)
COLO 205
  GI50: > 100 µM (inactive)
OVCAR-4
  GI50: > 100 µM (inactive)
UO-31
  GI50: > 100 µM (inactive)
KM12
  GI50: > 100 µM (inactive)
SK-MEL-2
  GI50: > 100 µM (inactive)
A549
  GI50: > 100 µM (inactive)
BT-549
  GI50: > 100 µM (inactive)
EKVX
  GI50: > 100 µM (inactive)
UACC-257
  GI50: > 100 µM (inactive)
NCI-H460
  GI50: > 100 µM (inactive)
SF-539
  GI50: > 100 µM (inactive)
TK-10
  GI50: > 100 µM (inactive)
HCT-116
  GI50: > 100 µM (inactive)
MCF7
  GI50: > 100 µM (inactive)
SW-620
  GI50: > 100 µM (inactive)
NCI/ADR-RES
  GI50: > 100 µM (inactive)
SN12C
  GI50: > 100 µM (inactive)
Hs-578T
  GI50: > 100 µM (inactive)
IGROV-1
  GI50: 67.3 µM (inactive)
HL-60
  GI50: > 100 µM (inactive)
CAKI-1
  GI50: > 100 µM (inactive)
NCI-H226
  GI50: > 100 µM (inactive)
HT-29
  GI50: > 100 µM (inactive)
HOP-62
  GI50: 73.5 µM (inactive)
CCRF-CEM
  GI50: > 100 µM (inactive)
HOP-92
  GI50: > 100 µM (inactive)
MDA-N
  GI50: > 100 µM (inactive)
786-0
  GI50: > 100 µM (inactive)
HCC 2998
  GI50: > 100 µM (inactive)
U-251
  GI50: > 100 µM (inactive)
MDA-MB-231
  GI50: > 100 µM (inactive)
SNB-75
  GI50: > 100 µM (inactive)
SK-OV-3
  GI50: > 100 µM (inactive)

## CC(C)(C)N/N=C(\C(=O)NC1=C(Cl)C(=O)c2ccccc2C1=O)C1C=CCS1(=O)=O (configuration not stated)
SNB-19
  GI50: > 100 µM (inactive)
K562
  GI50: > 100 µM (inactive)
PC-3
  GI50: 18.1 µM (inactive)
M14
  GI50: 11.5 µM (inactive)
OVCAR-8
  GI50: 19.8 µM (inactive)
SF-268
  GI50: 21.9 µM (inactive)
SF-295
  GI50: 12.6 µM (inactive)
Malme-3M
  GI50: 2.27 µM (inactive)
SK-MEL-28
  GI50: > 100 µM (inactive)
DU-145
  GI50: 11.1 µM (inactive)
NCI-H23
  GI50: 8.15 µM (inactive)
OVCAR-3
  GI50: 2.65 µM (inactive)
OVCAR-5
  GI50: 21.2 µM (inactive)
LOX IMVI
  GI50: 7.98 µM (inactive)
UACC-62
  GI50: 3.3 µM (inactive)
RPMI-8226
  GI50: > 100 µM (inactive)
ACHN
  GI50: 16.1 µM (inactive)
MOLT-4
  GI50: 66.7 µM (inactive)
HCT-15
  GI50: 7.06 µM
NCI-H522
  GI50: 12.5 µM (inactive)
COLO 205
  GI50: 16.6 µM (inactive)
OVCAR-4
  GI50: 16.4 µM (inactive)
UO-31
  GI50: 16.8 µM (inactive)
KM12
  GI50: 16 µM (inactive)
SK-MEL-2
  GI50: 11.2 µM (inactive)
A549
  GI50: 16.9 µM (inactive)
BT-549
  GI50: 12.4 µM (inactive)
EKVX
  GI50: 16.5 µM (inactive)
UACC-257
  GI50: 13.6 µM (inactive)
NCI-H460
  GI50: 6.84 µM (inactive)
SF-539
  GI50: 23.1 µM (inactive)
TK-10
  GI50: 38.9 µM (inactive)
HCT-116
  GI50: 15.5 µM (inactive)
MCF7
  GI50: 13.1 µM (inactive)
SW-620
  GI50: > 100 µM (inactive)
A498
  GI50: 21.2 µM (inactive)
NCI/ADR-RES
  GI50: 22 µM (inactive)
SN12C
  GI50: 15.1 µM (inactive)
Hs-578T
  GI50: 19.5 µM (inactive)
IGROV-1
  GI50: 10 µM (inactive)
HL-60
  GI50: > 100 µM (inactive)
CAKI-1
  GI50: 18.4 µM (inactive)
NCI-H226
  GI50: 12.6 µM (inactive)
HT-29
  GI50: 14.4 µM (inactive)
CCRF-CEM
  GI50: > 100 µM (inactive)
HOP-92
  GI50: 14.1 µM (inactive)
MDA-N
  GI50: 2.44 µM (inactive)
786-0
  GI50: 22.4 µM (inactive)
HCC 2998
  GI50: 36.1 µM (inactive)
T47D
  GI50: 19.5 µM (inactive)
U-251
  GI50: > 100 µM (inactive)
MDA-MB-231
  GI50: 14.6 µM (inactive)
SNB-75
  GI50: 11.1 µM (inactive)
SK-OV-3
  GI50: > 100 µM (inactive)
